Converted amounts (≈) assume the structure as drawn. Counter-ions that a name gives are not always drawn.
Tests used:
Format in all cases: cell-based
[1] = system: Proteus mirabilis Eb59; assay: MIC against Proteus mirabilis Eb59
[2] = system: Proteus vulgaris Eb51; assay: MIC against Proteus vulgaris Eb51
[3] = system: Staphylococcus aureus 209P; assay: MIC against Staphylococcus aureus 209P
[4] = system: Escherichia coli NIHJ; assay: MIC against Escherichia coli NIHJ
[5] = system: Bucillus subtilis PCI 219; assay: MIC against Bucillus subtilis PCI 219
[6] = system: Staphylococcus aureus No. 87; assay: MIC against Staphylococcus aureus No. 87
[7] = system: Sarcina lutea PCI 1001; assay: MIC against Sarcina lutea PCI 1001; conditions: Micrococcus luteus, PCI1001
[8] = system: Klebsiella pneumoniae; assay: MIC against Klebsiella pneumoniae
[9] = system: Staphylococcus aureus 1840; assay: MIC against Staphylococcus aureus 1840
[10] = system: Proteus vulgaris; assay: MIC against Proteus vulgaris (strain not given)
[11] = system: Proteus morganii Eb53; assay: MIC against Proteus morganii Eb53; conditions: Morganella morganii

| MIC [1] [µg/mL] | MIC [2] [µg/mL] | MIC [3] [µg/mL] | MIC [4] [µg/mL] | MIC [5] [µg/mL] | MIC [6] [µg/mL] | MIC [7] [µg/mL] | MIC [8] [µg/mL] | MIC [9] [µg/mL] | MIC [10] [µg/mL] | MIC [11] [µg/mL] | Structure (SMILES) |
| --- | --- | --- | --- | --- | --- | --- | --- | --- | --- | --- | --- |
|  |  | < 0.78 | 1.56 (≈ 3.25 µM) |  |  |  | 1.56 (≈ 3.25 µM) | 1.56 (≈ 3.25 µM) |  |  | Cc1ccc(SCC2=C(C(=O)O)N3C(=O)C(NC(=O)C[n+]4cc([O-])on4)C3SC2)n[n+]1[O-] (stereo not shown) [Example 11, 7-[2'-(3'-sydnone)acetamido]-3-[6"-(3"-methylpyridazinyl)thiomethyl]-3-cephem-4-carboxylic acid 2"-oxide] |
|  |  | < 0.78 | 1.56 |  |  |  | 1.56 | 1.56 |  |  | O=C(C[n+]1cc([O-])on1)NC1C(=O)N2C(C(=O)O)=C(CSc3ccc(Cl)n[n+]3[O-])CSC12 (stereo not shown) [Example 12, 7-[2'-(3'-sydnone)acetamido]-3[6"-(3"-chloropyridazinyl)-thiomethyl]-3-cephem-4-carboxylic acid 1"-oxide sodium salt] |
|  |  | < 0.78 |  |  |  |  | 1.56 | 1.56 |  |  | COc1ccc(SCC2=C(C(=O)O)N3C(=O)C(NC(=O)C[n+]4cc([O-])on4)C3SC2)[n+]([O-])n1 (stereo not shown) [Example 13, 7-[2'-(3'-sydnone)acetamido]-3-[6"-(3"-methoxypyridazinyl)thiomethyl]-3-cephem-4-carboxylic acid 1"-oxide sodium salt] |

Further lines, the molecule ahead of its results:

| Structure (SMILES) | MIC [1] [µg/mL] | MIC [2] [µg/mL] | MIC [3] [µg/mL] | MIC [4] [µg/mL] | MIC [5] [µg/mL] | MIC [6] [µg/mL] | MIC [7] [µg/mL] | MIC [8] [µg/mL] | MIC [9] [µg/mL] | MIC [10] [µg/mL] | MIC [11] [µg/mL] |
| --- | --- | --- | --- | --- | --- | --- | --- | --- | --- | --- | --- |
| Cc1ccc(SCC2=C(C(=O)O)N3C(=O)C(NC(=O)[C@H](O)c4ccccc4)C3SC2)n[n+]1[O-] (single isomer, unassigned) [Example 1, 7-[D-(-)-mandelamido]-3-[6'-(3'-methylpyridazinyl)thiomethyl] -3-cephem-4-carboxylic acid 2'-oxide sodium salt] | 5 | 1 | 0.1 | 0.5 | < 0.01 | 5 | 0.2 |  |  |  |  |
| COc1ccc(SCC2=C(C(=O)O)N3C(=O)C(NC(=O)[C@H](O)c4ccccc4)C3SC2)[n+]([O-])n1 (single isomer, unassigned) [Example 6, 7-[D-(-)-mandelamido]-3-[6'-(3'-methoxypyridazinyl)thiomethyl]-3-cephem-4-carboxylic acid 1'-oxide sodium salt] |  |  | < 0.78 | 1.56 |  |  |  | 1.56 | 1.56 |  |  |
| O=C(O)C1=C(CSc2ccc(Cl)n[n+]2[O-])CSC2C(NC(=O)[C@H](O)c3ccccc3)C(=O)N12 (single isomer, unassigned) [Example 7, 7-[D-(-)-mandelamido]-3-[6'-(3'-chloropyridazinyl)thiomethyl]-3-cephem-4-carboxylic acid 1'-oxide sodium salt] |  |  | < 0.78 | 1.56 |  |  |  | < 0.78 | < 1.56 | 3.12 | 25 |

Source: patent US4008227A, “Cephalosporins” (Takeda Chemical Industries, Ltd., priority 1973, dated 1977)
